Test results: patent US11554172B2, “Phosphonate linkers and their use to facilitate cellular retention of compounds” (priority 2016, dated 2023)

system: MDCKII cells; assay: Apparent permeability in MDCKII cells; assay type: in vitro ADME; conditions: Papp, average of A to B and B to A, 1 μM test compound, t=3 hr
Protocol: Determination of apparent permeability was as follows. MDCKII cells (kindly provided by the Netherlands Cancer Institute, under a licensing agreement) were seeded on to 96-well transwell culture plates (Millipore Corp, Billerica, Mass.) and used in experiments after five days in culture. […] Substrate solution (150 μL) was added to either the apical (A) or the basolateral (B) compartment of the culture plate, and buffer (150 μL; HBSS, 10 mM HEPES, pH 7.4) with 10 μM cyclosporine A was added to the compartment opposite to that containing the substrate. At t=3 hr, 50 μL samples were removed from both sides of monolayers dosed with test compound and placed in 96 well plates, 50 μL internal standard (1 μM labetolol) and 100 μL HBSS was added to the samples. Samples were analyzed by LC/MS/MS using an Applied Biosystems SCIEX API 5000 triple quadruple mass spectrometer (Concord, ON, Canada) with a TurboIonSpray ion source in the positive ion mode. A Thermo Scientific Transcend LX-2 system (Franklin, Mass.) was coupled to the API 5000 with a flow rate of 800 μL/min to direct sample into the mass spectrometer.
Papp was expressed as 10-6 cm/s.

Row | Compound | MDCK Permeability (cm × 10-6/sec)
1 | CCCC1O[C@@H]2C[C@H]3[C@@H]4CCC5=CC(=O)C=C[C@]5(C)[C@H]4[C@@H](O)C[C@]3(C)[C@]2(C(=O)CO)O1 (stereo partly shown) [Budesonide, reference compound] | 31.6
2 | CCC(=O)O[C@]1(C(=O)SCCCCCCP(=O)(O)O)[C@H](C)C[C@H]2[C@@H]3C[C@H](F)C4=CC(=O)C=C[C@]4(C)[C@@]3(F)[C@@H](O)C[C@@]21C [Compound 7] | 2
3 | CCCC1O[C@@H]2C[C@H]3[C@@H]4CCC5=Cc6c(cnn6-c6cccc(OCCCCP(=O)(O)O)c6)C[C@]5(C)[C@H]4[C@@H](O)C[C@]3(C)[C@]2(C(=O)CO)O1 (stereo partly shown) [Compound 28] | 1.6
4 | C[C@@H]1C[C@H]2[C@@H]3C[C@H](F)C4=CC(=O)C=C[C@]4(C)[C@@]3(F)[C@@H](O)C[C@]2(C)[C@@]1(O)C(=O)SCCCCCCCCCCP(=O)(O)O [Compound 8] | 2.8
5 | CCC(=O)O[C@]1(C(=O)SCF)[C@H](C)C[C@H]2[C@@H]3C[C@H](F)C4=CC(=O)C=C[C@]4(C)[C@@]3(F)[C@@H](O)C[C@@]21C [Fluticasone Propionate, reference compound] | 21.5
6 | C[C@@H]1C[C@H]2[C@@H]3C[C@H](F)C4=CC(=O)C=C[C@]4(C)[C@@]3(F)[C@@H](O)C[C@]2(C)[C@@]1(O)C(=O)SCCCCP(=O)(O)O [Compound 5] | 1.84
7 | CCC(=O)O[C@]1(C(=O)SCCCCP(=O)(O)O)[C@H](C)C[C@H]2[C@@H]3C[C@H](F)C4=CC(=O)C=C[C@]4(C)[C@@]3(F)[C@@H](O)C[C@@]21C [Compound 4] | 1.72
8 | CCC(=O)O[C@]1(C(=O)SCCCCCCCCCCP(=O)(O)O)[C@H](C)C[C@H]2[C@@H]3C[C@H](F)C4=CC(=O)C=C[C@]4(C)[C@@]3(F)[C@@H](O)C[C@@]21C [Compound 3, (10-(((6S,8S,9R,10S,11S,13S,14S,16R,17R)-6,9-difluoro-11-hydroxy-10,13,16-trimethyl-3-oxo-17-(propionyloxy)-6,7,8,9,10,11,12,13,14,15,16,17-dodecahydro-3H-cyclopenta[a]phenanthrene-17-carbonyl)thio)decyl)phosphonic acid] | 1.04
9 | C[C@@H]1C[C@H]2[C@@H]3C[C@H](F)C4=CC(=O)C=C[C@]4(C)[C@@]3(F)[C@@H](O)C[C@]2(C)[C@@]1(OC(=O)CCCCCCCCP(=O)(O)O)C(=O)SCF [Compound 18, (9-(((6S,8S,9R,10S,11S,13S,14S,16R,17R)-6,9-difluoro-17-(((fluoromethyl)thio)carbonyl)-11-hydroxy-10,13,16-trimethyl-3-oxo-6,7,8,9,10,11,12,13,14,15,16,17-dodecahydro-3H-cyclopenta[a]phenanthren-17-yl)oxy)-9-oxononyl)phosphonic acid] | <0.9
10 | CCCC1O[C@@H]2C[C@H]3[C@@H]4CCC5=Cc6c(cnn6-c6ccc(OCCCCP(=O)(O)O)cc6)C[C@]5(C)[C@H]4[C@@H](O)C[C@]3(C)[C@]2(C(=O)CO)O1 (stereo partly shown) [Compound 30] | 1.9
11 | CCCC1O[C@@H]2C[C@H]3[C@@H]4CCC5=Cc6c(cnn6-c6ccc(OCCCCCCP(=O)(O)O)cc6)C[C@]5(C)[C@H]4[C@@H](O)C[C@]3(C)[C@]2(C(=O)CO)O1 (stereo partly shown) [Compound 31] | 4.1
12 | C[C@@H]1C[C@H]2[C@@H]3C[C@H](F)C4=CC(=O)C=C[C@]4(C)[C@@]3(F)[C@@H](O)C[C@]2(C)[C@@]1(O)C(=O)SCCCCCCP(=O)(O)O [Compound 10] | 1.9

system: GILZ gene; assay: GILZ gene assay (qPCR, HUT78 / 786-O cells); assay type: cell-based; conditions: at 10 uM
Protocol: GILZ gene assays were conducted as follows. HUT78 cells were cultured in IMEM plus 20% heat inactivated FBS and cell density was maintained between 0.1 to 1.2 million/mL. 786-O cells were cultured in RPMI plus 10% heat inactivated FBS. Actively growing cells were harvested and resuspended in HBSS with 2% FBS at 1.1 million cells per mL then dispensed to 384-well V-bottom plates at 45 μL per well. Serially diluted ADC solution was added to the cell plate (5 μL per well) and mixed for 2 min. Cells were then cultured at 37° C., at 5% CO2 for a designated time before supernatant was removed. Cells were harvested in lysis buffer from the Cells-to-Ct kit (40 μL, Life Technologies, 4391851C) following the supplier's protocol and mixed for 10 min followed by addition of 5 μL per well of stop solution from the kit. cDNA was synthesized with a reverse transcription kit (Life Technologies, 4391852C) follow by qPCR using the TaqMan gene expression master mix (Life Technologies, 4369016) with GILZ gene assay (Life Technologies, Hs00608272_m1) and GAPDH assay (Hs2758991_g1) in a duplex format with 3-4 technical replicates.

Row | Compound | GILZ Max
13 | (6-(3-((3aR,4aS,4bS,11aR,11bS,12S,13aS,13bS)-12-hydroxy-13b-(2-hydroxyacetyl)-11a,13a-dimethyl-2-propyl-4,4a,5,6,11,11a,11b,12,13,13a-decahydro-[1,3]dioxolo[4″,5″:3′,4′]cyclopenta[1′,2′:5,6]naphtho[,2-f]indazol-8(3aH,4bH,13bH)-yl)phenoxy)hexyl)phosphonic acid [Compound 27] | 80% (at

same assay, conditions: read-out: GILZ EC50

Row | Compound | EC50 [nM]
14 | C[C@@H]1C[C@H]2[C@@H]3C[C@H](F)C4=CC(=O)C=C[C@]4(C)[C@@]3(F)[C@@H](O)C[C@]2(C)[C@@]1(OC(=O)CCCCCP(=O)(O)O)C(=O)SCF [Compound 19, (6-(((6S,8S,9R,10S,11S,13S,14S,16R,17R)-6,9-difluoro-17-(((fluoromethyl)thio)carbonyl)-11-hydroxy-10,13,16-trimethyl-3-oxo-6,7,8,9,10,11,12,13,14,15,16,17-dodecahydro-3H-cyclopenta[a]phenanthren-17-yl)oxy)-6-oxohexyl)phosphonic acid] | 1290
15 | (6-(3-((3aR,4aS,4bS,11aR,11bS,12S,13aS,13bS)-12-hydroxy-13b-(2-hydroxyacetyl)-11a,13a-dimethyl-2-propyl-4,4a,5,6,11,11a,11b,12,13,13a-decahydro-[1,3]dioxolo[4″,5″:3′,4′]cyclopenta[1′,2′:5,6]naphtho[,2-f]indazol-8(3aH,4bH,13bH)-yl)phenoxy)hexyl)phosphonic acid [Compound 27] | 2760

biological target: GR full length protein (glucocorticoid receptor) (Homo sapiens (Human), UniProt P04150); assay: PolarScreen Glucocorticoid Receptor Competitor Assay (GR binding); conditions: fluorescence polarisation competitor assay, 2-4 hours at room temperature; read-out: GR Bind IC50
Sequence (P04150 whole entry): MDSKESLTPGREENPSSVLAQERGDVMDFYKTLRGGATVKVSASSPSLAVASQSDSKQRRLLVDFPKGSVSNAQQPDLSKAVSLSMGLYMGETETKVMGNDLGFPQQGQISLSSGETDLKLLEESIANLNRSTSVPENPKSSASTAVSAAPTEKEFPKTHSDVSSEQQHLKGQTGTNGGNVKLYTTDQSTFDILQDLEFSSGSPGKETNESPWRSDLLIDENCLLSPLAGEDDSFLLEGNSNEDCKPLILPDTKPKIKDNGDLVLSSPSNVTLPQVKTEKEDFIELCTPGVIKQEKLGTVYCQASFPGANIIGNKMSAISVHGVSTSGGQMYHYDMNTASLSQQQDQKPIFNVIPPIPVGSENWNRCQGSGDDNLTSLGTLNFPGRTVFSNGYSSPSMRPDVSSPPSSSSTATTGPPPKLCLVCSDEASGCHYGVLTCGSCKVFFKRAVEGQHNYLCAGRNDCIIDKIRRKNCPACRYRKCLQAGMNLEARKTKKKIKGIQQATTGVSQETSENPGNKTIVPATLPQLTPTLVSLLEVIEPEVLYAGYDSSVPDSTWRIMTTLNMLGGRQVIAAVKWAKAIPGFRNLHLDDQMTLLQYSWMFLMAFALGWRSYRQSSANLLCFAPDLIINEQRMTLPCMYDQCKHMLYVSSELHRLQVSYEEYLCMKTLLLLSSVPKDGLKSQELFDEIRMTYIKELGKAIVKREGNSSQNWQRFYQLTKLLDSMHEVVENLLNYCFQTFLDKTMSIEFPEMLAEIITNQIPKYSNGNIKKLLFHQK
Protocol: The potency of binding to gucocorticoid receptor by small molecule compounds was measured with the PolarScreen™ Glucocorticoid Receptor Competitor Assay Kit, Red (Life Technology, Catalog #A15898) according to the procedure in the kit. In brief, after compounds were diluted and transferred into assay plates, the fluormone GS red and GR full length protein were subsequently added into the assay plates, along with the positive and negative controls. The samples were mixed on a shaker for 1 minute and then the plates were incubated at room temperature for 2-4 hours with minimal light exposure. The plates were read with an Envision and the relative fluorescent signals were calculated. The data were plotted in GraphPad Prism and the EC50 values were calculated with non-linear regression curve fit of the data in GraphPad Prism.

Row | Compound | IC50 [nM]
16 | C[C@@H]1C[C@H]2[C@@H]3C[C@H](F)C4=CC(=O)C=C[C@]4(C)[C@@]3(F)[C@@H](O)C[C@]2(C)[C@@]1(OC(=O)CCCCCP(=O)(O)O)C(=O)SCF [Compound 19, (6-(((6S,8S,9R,10S,11S,13S,14S,16R,17R)-6,9-difluoro-17-(((fluoromethyl)thio)carbonyl)-11-hydroxy-10,13,16-trimethyl-3-oxo-6,7,8,9,10,11,12,13,14,15,16,17-dodecahydro-3H-cyclopenta[a]phenanthren-17-yl)oxy)-6-oxohexyl)phosphonic acid] | 0.14
